The source of these data is patent publication US20240041830A1, “CIRCULATING BIOMARKERS OF RESPONSE TO PD-1/PD-L1 BLOCKADE AND GSK-3 INHIBITION” (Brown University, priority 2022, published 2024).

Each structure is given as a SMILES string.

The subject of the experiment is patient-derived CD8+ T cells. In words: ex vivo cytokine profiling of supernatant (Luminex). In kind it is cell-based, human. The conditions noted are these: forty-eight hours (1 NM) vs DMSO. How it is done:
Human cytokine profiling. Human cell line culture supernatants were analyzed using an R&D systems Human Premixed Multi-Analyte Kit (R&D Systems, Inc., Minneapolis, MN, USA) and a Luminex 200 (RRID: SCR_018025) Instrument (LX200-XPON-RUO, Luminex Corporation, Austin, TX, USA) according to the manufacturer's instructions. Sample levels of TNF-α, 4-1BB/TNFRSF9/CD137, IL-8/CXCL8, Ferritin, IFN-β, IL-10, CCL2/JE/MCP-1, VEGF, CXCL13/BLC/BCA-1, IFN-γ, CCL20/MIP-3 α, CCL3/MIP-1 α, CCL22/MDC, CCL4/MIP-1 β, Fas Ligand/TNFSF6, IL-17/1L-17A, IL-2, BAFF/BLyS/TNFSF13B, GM-CSF, CXCLS/ENA-78, TRANCE/TNFSF11/RANK L, CXCL9/MIG, G-CSF, IFN-γ R1/CD119, VEGFR3/Flt-4, C-Reactive Protein/CRP, CXCL11/I-TAC, IL-21, CXCL14/BRAK, IL-6, Fas/TNFRSF6/CD95, TRAIL R3/TNFRSF10C, IL-4, CCL5/RANTES, PD-L1/137-H1, CCL7/MCP-3/MARC, Chitinase 3-like 1, CXCL10/IP-10/CRG-2, IL-1 μ/IL-1F2, IL-7, Prolactin, CCL8/MCP-2, TRAIL R2/TNFRSF10B, M-CSF, IL-15, Granzyme B, IFN-α, TREM-1, IL-12/1L-23 p40, TRAIL/TNFSF10, CCL11/Eotaxin, and 1L-18/1L-1F4. Quantitative analysis with 6 standards and a minimum of 50 counts per bead region was used with the Luminex to generate analyte values reported as picograms/milliliter (pg/mL). Sample concentrations less than the lower limit of detection for each particular analyte were recoded as the lower limit value divided by 10. Sample concentrations above the upper limit of detection for a particular analyte were recoded as the upper limit of detection.
The inventors collected peripheral blood during the patient's best response at fifteen months, corresponding with their lowest concentration of sIL-2 r in the peripheral blood, and isolated CD8+, non-ATLL T cells for further analysis. The inventors then treated these CD8+ cells ex vivo with elraglusib and assessed changes in cytokine, chemokine, and growth factor profiles in the cell culture supernatant using Luminex (LX200) technology and a custom cytokine panel described by Huntington, Louie, Zhou, & EI-Deiry, A high-throughput customized cytokinome screen of colon cancer cell responses to small-molecule oncology drugs. Oncotarget, 12, 1980-1991 (2021).
Treatment of patient-derived CD8+ T cells with elraglusib increases granzyme B, TRAIL, and IFN-gamma secretion while decreasing VEGF, TNF-alpha, and CCL5/RANTES concentrations in cell culture supernatant in comparison to control groups. Patient-derived CD8+ cytotoxic T cells were treated with elraglusib for forty-eight hours (1 NM) or control (DMSO) and cytokine concentration was measured in cell culture supernatants. (Statistical significance was calculated with GraphPad Prism 9.3.1 using unpaired t tests and is denoted on each plot as follows: P>0.05=n.s., P≤0.05=*, P≤0.01=**, P≤0.001=***, and P≤0.0001=**** (N=3).

Consider `Cn1cc(C2=C(c3coc4ccc(F)cc34)C(=O)NC2=O)c2cc3c(cc21)OCO3` [elraglusib], for which the “CCL5/RANTES concentration in supernatant” value was “decreasing”, the IFN-gamma secretion entry was “increases”, the “TNF-alpha concentration in supernatant” value was “decreasing” and the TRAIL secretion entry is on record as “increases”. Moreover, the “VEGF concentration in supernatant” value is “decreasing” and the “granzyme B secretion” value is listed as “increases”.
